Measurements from patent US7732425B2, “Pharmaceutical composition for ophthalmic use” (Kabushiki Kaisha Hayashibara Seibutsu Kagaku Kenkyujo, priority 2000, dated 2010).

Tested on: ophthalmologic clinical symptoms and signs of Sjögren syndrome
Assay: Therapeutic experiment with α,α-trehalose eye drops in patients diagnosed with Sjögren syndrome
Assay type: in vivo, human
Text: To confirm the therapeutic effect by trehalose on the ophthalmologic clinical symptoms and signs of Sjögren syndrome, patients consisting of 10 men and 10 women, 22-65 years old (a mean average of 45 years old), who were diagnosed as Sjögren syndrome and had been suffering from clinical symptoms such as foreign body sensation, burning, and itching in their both eyes, were subjected to a therapeutic experiment. In this experiment, a reagent grade of α,α-trehalose with a purity of 99% or higher, commercialized by Hayashibara Biochemical Laboratories, Inc., Okayama, Japan, was dissolved in physiological saline to give a final concentration of 3.5% (w/v) or 7.5% (w/v), and filtered with a 0.22 μm membrane filter to remove bacteria. Then, the filtrate was removed pyrogen in a usual manner for a test preparation. As a control, a similar preparation was provided except for not dissolving α,α-trehalose therein. The 3.5% (w/v) α,α-trehalose solution was administered to one eye for each one of 5-male and 5-female patients, while the physiological saline as a control was administered to the other eye for each one of the patients. The administrations were conducted at four times (getting up, daytime, evening, and before sleeping) a day and at a dose of two to three drops (a volume of about 0.05 to about 0.075 ml) per shot for four weeks. Before and after this experiment, the patients were asked to grade the symptoms of foreign body sensation, burning, and itching in their eyes. Using the 7.5% (w/v) α,α-trehalose solution, a similar experiment was conducted with the remaining male and female patients, five each.

[1] = patients with Sjögren syndrome, 3.5% or 7.5% (w/v) solution, four times a day for four weeks

exacerbation of the ophthalmologic clinical symptoms and signs in the treated eyes (all twenty patients, during and after completion of the four-week experiment): no exacerbation
Compound: OC[C@H]1O[C@H](O[C@H]2O[C@H](CO)[C@@H](O)[C@H](O)[C@H]2O)[C@H](O)[C@@H](O)[C@@H]1O [α,α-trehalose]
duration of therapeutic effect after end of administration (after completion of the four-week experiment): lasted for some days even after the completion of this experiment
improvement or remission of the subjective ophthalmic symptoms of foreign body sensation, burning, and itching (patients with Sjögren syndrome, 3.5% (w/v) or 7.5% (w/v) solution in physiological saline, one eye, 2-3 drops four times a day for four weeks, other eye saline control): nine out of ten patients
corneal and conjunctival erosions stained by fluorescein and rose bengal (objective sign) [1]: reduced in all the ten patients
tear film break-up time (objective sign) [1]: improved in nine out of ten patients
